Experiments:
[1] = target: T1, Human Neutrophil Elastase (HNE) (Homo sapiens, UniProt P08246); test: Human Neutrophil Elastase Quenched-FRET Assay; type: biochemical; details: 1.7 nM HNE, 100 μM MeOSuc-AAPV-AMC, 15 min pre-incubation, 30 min at room temperature; read-out: Inhibition of Human Neutrophil Elastase IC50
T1 construct: Human Neutrophil Elastase (HNE) purified from serum; purchased Calbiochem 324681; host or cells: purified from serum (natural human source, not recombinant)
T1 sequence (P08246 30-247 limits assumed): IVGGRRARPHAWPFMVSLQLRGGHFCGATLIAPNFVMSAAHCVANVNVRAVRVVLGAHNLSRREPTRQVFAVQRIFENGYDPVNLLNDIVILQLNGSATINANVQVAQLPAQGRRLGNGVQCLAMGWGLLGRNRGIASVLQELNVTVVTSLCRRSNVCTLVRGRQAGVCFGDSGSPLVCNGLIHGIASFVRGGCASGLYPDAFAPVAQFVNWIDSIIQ
Method: Human Neutrophil Elastase Quenched-FRET Assay
The assay uses Human Neutrophil Elastase (HNE) purified from serum (Calbiochem art. 324681; Ref. Baugh, R. J. et al., 1976, Biochemistry. 15, 836-841). HNE was stored in 50 mM sodium acetate (NaOAc), 200 mM sodium chloride (NaCl), pH 5.5 with added 30% glycerol at −20° C. The protease substrate used was Elastase Substrate V Fluorogenic, MeOSuc-AAPV-AMC (Calbiochem art. 324740; Ref. Castillo, M. J. et al., 1979, Anal. Biochem. 99, 53-64). The substrate was stored in dimethyl sulphoxide (DMSO) at −20° C. The assay additions were as follows: Test compounds and controls were added to black 96-well flat-bottom plates (Greiner 655076), 1 μL in 100% DMSO, followed by 30 μL HNE in assay buffer with 0.01% Triton (trade mark) X-100 detergent. The assay buffer constitution was: 100 mM Tris(hydroxymethyl)aminomethane (TRIS) (pH 7.5) and 500 mM NaCl. The enzyme and the compounds were incubated at room temperature for 15 minutes. Then 30 μl substrate in assay buffer was added. The assay was incubated for 30 minutes at room temperature. The concentrations of HNE enzyme and substrate during the incubation were 1.7 nM and 100 μM, respectively. The assay was then stopped by adding […] stop solution (140 mM acetic acid, 200 mM sodium monochloroacetate, 60 mM sodium acetate, pH 4.3). Fluorescence was measured on a Wallac 1420 Victor 2 instrument at settings: Excitation 380 nm, Emission 460 nm. IC50 values were determined using Xlfit curve fitting using model 205.

[2] = Thermal behaviour of the solid (DSC / TGA); type: physicochemical; details: solid state
Method: Using standard methods, for example those described in Höhne, G. W. H. et al (1996), Differential Scanning Calorimetry, Springer, Berlin, the calorimetric response of a test sample to increasing temperature was investigated using a TA Instruments Q2000 Modulated Temperature Differential Scanning Calorimeter (MTDSC). Measurements were performed between 15 and 300° C. using a modulation of ±0.50° C. in intervals of 40 seconds and a ramp rate of 5° C. per minute. Approximately 1 to 5 mg of test sample was placed in aluminium cups with lids (no crimping) under a nitrogen atmosphere.
Gravimetric Analysis (TGA)
The gravimetric response of test samples to increasing temperatures was investigated using a Q500 Thermal Gravimetric Analyser (TGA) (TA Instruments). The samples were heated in a flow of nitrogen gas with a heating rate of 10° C./min.
Approximately 1 to 3 mg of the test sample was placed in the cup and heated to approximately 300° C.

[3] = Humidity interaction (Gravimetrical Vapour Sorption); type: physicochemical; details: 0 to 80% relative humidity (RH) at 25° C.
Method: is The gravimetric responses of test samples to changes in humidity were investigated using a TGA 5000 (TA Instruments) Gravimetrical Vapour Sorption (GVS). The relative humidity (RH) was raised in steps of 5% to 90% RH and lowered back to 0% RH in two cycles. Each level of RH was held until the equilibrium condition (sample weight change<0.01 wt % per 10 minutes) was reached. Measurements were normally made at 25° C. Approximately 5 mg of the test sample was placed in the cup and evaluated. The hygroscopicity was calculated as the relative change in weight of the sample between the two conditions 0% RH and 80% RH during the second cycle.

IC50 [1] [nM]	SMILES	thermally stable below (no solvent loss nor other thermal event prior to melting) [2]	water uptake (hygroscopicity) [3] [wt %]
3.5	Cc1cc(-c2nc(C(N)=O)c(=O)n(-c3cccc(C(F)(F)F)c3)c2C)n(-c2ccc(C#N)cc2)n1 [Example 4, 6-[1-(4-Cyanophenyl)-3-methyl-1H-pyrazol-5-yl]-5-methyl-3-oxo-4-[3-(trifluoromethyl)phenyl]-3,4-dihydropyrazine-2-carboxamide]		
28	Cc1c(-c2ccnn2-c2ccc(Cl)cn2)nc(C(N)=O)c(=O)n1-c1cccc(C(F)(F)F)c1 [Example 3, 6-[1-(5-Chloropyridin-2-yl)-1H-pyrazol-5-yl]-5-methyl-3-oxo-4-[3-(trifluoromethyl)phenyl]-3,4-dihydropyrazine-2-carboxamide]		
4.2	Cc1c(-c2ccnn2-c2ccc(C#N)cc2)nc(C(=O)NC2CC2)c(=O)n1-c1cccc(C#N)c1 [Example 5, 4-(3-Cyanophenyl)-6-[1-(4-cyanophenyl)-1H-pyrazol-5-yl]-N-cyclopropyl-5-methyl-3-oxo-3,4-dihydropyrazine-2-carboxamide]		
1.4	Cc1c(C2=NC(C)(C)CN2c2ccc(C#N)cc2)nc(C(N)=O)c(=O)n1-c1cccc(C(F)(F)F)c1 [Example 6, 6-(1-(4-Cyanophenyl)-4,4-dimethyl-4,5-dihydro-1H-imidazol-2-yl)-5-methyl-3-oxo-4-(3-(trifluoromethyl)phenyl)-3,4-dihydropyrazine-2-carb oxamide]		
11	Cc1c(-c2ccnn2-c2ccc(Cl)cc2)nc(C(N)=O)c(=O)n1-c1cccc(C(F)(F)F)c1 [Example 2, 6-[1-(4-Chlorophenyl)-1H-pyrazol-5-yl]-5-methyl-3-oxo-4-[3-(trifluoromethyl)phenyl]-3,4-dihydropyrazine-2-carboxamide]		
	Cc1c(-c2ccnn2-c2ccc(C#N)cc2)nc(C(N)=O)c(=O)n1-c1cccc(C(F)(F)F)c1 [Example 1a, 6-[1-(4-Cyanophenyl)-1H-pyrazol-5-yl]-5-methyl-3-oxo-4-[3-(trifluoromethyl)phenyl]-3,4-dihydropyrazine-2-carboxamide Form A]	below 260 °C	< 0.2

SMILES	IC50 [1] [nM]	thermally stable below (no solvent loss nor other thermal event prior to melting) [2]	water uptake (hygroscopicity) [3] [wt %]
Cc1c(-c2ccnn2-c2ccc(C#N)cc2)nc(C(N)=O)c(=O)n1-c1cccc(C(F)(F)F)c1 [Example 1 or 1a, 6-[1-(4-Cyanophenyl)-1H-pyrazol-5-yl]-5-methyl-3-oxo-4-[3-(trifluoromethyl)phenyl]-3,4-dihydropyrazine-2-carboxamide]	2.2		
